Reference: PMC9962794, “A Novel and Functionally Diverse Class of Acetylcholine-Gated Ion Channels” (The Journal of Neuroscience, 2023)
Read-outs that look alike come from different tables or passages of the source.

Legend:
Experiment in all cases: two-electrode voltage clamp, oocytes
Type in all cases: cell-based
[1] = molecular target: T1, LGC-57 (Caenorhabditis elegans, UniProt Q09453)
T1 construct: full-length untagged cDNA in KSM vector, cRNA in Xenopus laevis oocytes; pentameric, expressed alone
T1 sequence (Q09453 20-473): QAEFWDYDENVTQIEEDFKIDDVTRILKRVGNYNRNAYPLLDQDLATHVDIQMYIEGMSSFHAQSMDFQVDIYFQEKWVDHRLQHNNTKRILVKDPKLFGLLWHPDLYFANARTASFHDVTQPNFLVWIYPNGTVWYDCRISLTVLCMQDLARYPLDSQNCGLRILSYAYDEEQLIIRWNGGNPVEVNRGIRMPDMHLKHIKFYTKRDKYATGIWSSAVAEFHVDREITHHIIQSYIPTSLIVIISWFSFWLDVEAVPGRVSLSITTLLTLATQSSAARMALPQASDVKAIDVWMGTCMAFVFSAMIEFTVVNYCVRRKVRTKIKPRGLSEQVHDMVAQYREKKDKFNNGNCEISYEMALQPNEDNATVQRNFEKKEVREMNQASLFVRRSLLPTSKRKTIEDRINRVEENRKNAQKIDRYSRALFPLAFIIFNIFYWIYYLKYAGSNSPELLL

[2] = molecular target: T2, LGC-58 (Caenorhabditis elegans, UniProt Q2WF65)
T2 construct: full-length untagged cDNA in KSM vector, cRNA in Xenopus laevis oocytes; pentameric, expressed alone
T2 sequence (Q2WF65 21-546): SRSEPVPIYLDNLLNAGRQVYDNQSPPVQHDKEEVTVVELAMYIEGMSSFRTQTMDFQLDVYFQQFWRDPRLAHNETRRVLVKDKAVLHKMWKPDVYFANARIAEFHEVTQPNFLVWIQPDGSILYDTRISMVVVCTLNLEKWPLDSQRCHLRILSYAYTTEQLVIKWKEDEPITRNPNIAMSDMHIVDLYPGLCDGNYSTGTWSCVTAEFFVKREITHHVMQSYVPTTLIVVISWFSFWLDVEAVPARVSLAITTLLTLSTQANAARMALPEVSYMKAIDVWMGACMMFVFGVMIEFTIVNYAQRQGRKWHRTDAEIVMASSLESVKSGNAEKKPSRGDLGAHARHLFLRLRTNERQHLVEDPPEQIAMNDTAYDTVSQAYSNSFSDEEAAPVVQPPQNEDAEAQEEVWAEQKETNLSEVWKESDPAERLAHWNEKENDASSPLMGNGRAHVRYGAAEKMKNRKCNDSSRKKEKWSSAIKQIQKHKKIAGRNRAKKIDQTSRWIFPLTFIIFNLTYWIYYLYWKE

[3] = molecular target: T3, LGC-40 (Caenorhabditis elegans, UniProt Q22741)
T3 construct: full-length untagged cDNA in KSM vector, cRNA in Xenopus laevis oocytes; pentameric, expressed alone
T3 sequence (Q22741 23-494): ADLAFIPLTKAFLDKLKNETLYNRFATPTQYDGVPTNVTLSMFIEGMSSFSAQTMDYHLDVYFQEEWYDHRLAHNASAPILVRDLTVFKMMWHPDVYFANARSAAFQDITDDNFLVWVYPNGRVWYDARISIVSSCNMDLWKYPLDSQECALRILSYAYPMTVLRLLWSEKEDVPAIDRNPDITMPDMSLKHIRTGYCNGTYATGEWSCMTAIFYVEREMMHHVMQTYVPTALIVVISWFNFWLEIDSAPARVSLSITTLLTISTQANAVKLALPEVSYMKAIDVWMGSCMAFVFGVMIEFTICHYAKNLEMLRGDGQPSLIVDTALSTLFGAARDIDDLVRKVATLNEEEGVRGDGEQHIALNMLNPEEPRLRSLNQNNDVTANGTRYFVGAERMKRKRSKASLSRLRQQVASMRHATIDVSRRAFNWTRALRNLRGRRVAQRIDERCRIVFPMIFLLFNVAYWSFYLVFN

[4] = molecular target: T4, LGC-39 (Caenorhabditis elegans, UniProt O17402)
T4 construct: full-length cDNA by gene synthesis, KSM vector, cRNA in Xenopus laevis oocytes; homomeric pentameric channel
T4 sequence (O17402 22-563): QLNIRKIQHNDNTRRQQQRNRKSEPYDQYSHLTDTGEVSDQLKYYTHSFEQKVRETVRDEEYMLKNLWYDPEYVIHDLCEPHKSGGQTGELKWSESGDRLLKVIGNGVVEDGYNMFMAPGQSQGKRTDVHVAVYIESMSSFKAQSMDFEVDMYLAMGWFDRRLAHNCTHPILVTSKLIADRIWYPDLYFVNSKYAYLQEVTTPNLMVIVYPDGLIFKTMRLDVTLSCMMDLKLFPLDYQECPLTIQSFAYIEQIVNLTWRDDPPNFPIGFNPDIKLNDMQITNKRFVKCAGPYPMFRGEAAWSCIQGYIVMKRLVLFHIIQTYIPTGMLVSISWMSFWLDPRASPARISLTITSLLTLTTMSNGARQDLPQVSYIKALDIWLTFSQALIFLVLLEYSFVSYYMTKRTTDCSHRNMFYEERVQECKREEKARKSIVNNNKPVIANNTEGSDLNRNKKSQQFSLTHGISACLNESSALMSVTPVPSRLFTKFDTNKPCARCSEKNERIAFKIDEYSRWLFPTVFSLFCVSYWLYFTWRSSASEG

[5] = molecular target: T5, LGC-49 (Caenorhabditis elegans, UniProt Q21420)
T5 construct: full-length cDNA in KSM vector, cRNA in Xenopus laevis oocytes; homomeric pentameric channel
T5 sequence (Q21420 26-457): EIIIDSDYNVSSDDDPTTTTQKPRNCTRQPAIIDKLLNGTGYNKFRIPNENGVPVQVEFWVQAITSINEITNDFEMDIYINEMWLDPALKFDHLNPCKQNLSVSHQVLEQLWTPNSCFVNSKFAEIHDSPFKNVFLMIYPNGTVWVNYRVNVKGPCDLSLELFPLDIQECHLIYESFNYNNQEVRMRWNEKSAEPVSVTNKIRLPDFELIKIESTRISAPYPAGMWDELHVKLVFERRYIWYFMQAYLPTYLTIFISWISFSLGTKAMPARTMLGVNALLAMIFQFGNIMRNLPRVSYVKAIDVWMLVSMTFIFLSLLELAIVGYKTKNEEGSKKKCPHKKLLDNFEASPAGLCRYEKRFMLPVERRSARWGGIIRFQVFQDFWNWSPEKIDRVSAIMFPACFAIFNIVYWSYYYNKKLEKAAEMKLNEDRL

[6] = molecular target: T6, LGC-46 (Caenorhabditis elegans, UniProt Q95Y52); settings: agonist; ND96, clamped at -60 mV
T6 construct: full-length cDNA in KSM vector, cRNA in Xenopus laevis oocytes; pentameric, expressed alone
T6 sequence (Q95Y52 19-508): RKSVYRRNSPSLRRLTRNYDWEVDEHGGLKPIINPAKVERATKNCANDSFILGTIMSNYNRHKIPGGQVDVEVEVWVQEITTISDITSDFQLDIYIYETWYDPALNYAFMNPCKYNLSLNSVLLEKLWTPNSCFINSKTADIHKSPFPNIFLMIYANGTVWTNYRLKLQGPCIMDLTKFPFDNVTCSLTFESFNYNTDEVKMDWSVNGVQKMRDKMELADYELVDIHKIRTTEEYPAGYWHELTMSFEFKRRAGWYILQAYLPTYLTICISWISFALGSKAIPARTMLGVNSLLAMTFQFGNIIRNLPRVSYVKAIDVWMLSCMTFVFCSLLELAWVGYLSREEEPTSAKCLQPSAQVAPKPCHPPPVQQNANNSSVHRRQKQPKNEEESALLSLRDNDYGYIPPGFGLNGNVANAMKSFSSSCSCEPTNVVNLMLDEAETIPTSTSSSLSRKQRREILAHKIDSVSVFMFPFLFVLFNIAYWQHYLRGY

[7] = molecular target: T4, LGC-39; remark: listed apart in the source

Structure (SMILES): CC(=O)OCC[N+](C)(C)C [acetylcholine]
- EC50 [1]: 115 µM
- EC50 [2]: 41 µM
- EC50 [3]: 117 µM
- EC50 ([4]; read-out: EC50): 1290 µM
- EC50 [5]: 19 µM
- EC50 [6]: the ACh-induced dose–response curve for LGC-46

Structure (SMILES): C[N+](C)(C)CCO [choline]
- EC50 [1]: 22 µM
- EC50 [2]: 15 µM
- EC50 [3]: 15 µM

Structure (SMILES): NC1=NCC2c3ccccc3Cc3ccccc3N12 (stereo not drawn) [epinastine]
- IC50 [7]: 1 µM
- EC50 ([4]; read-out: EC50): 10 µM

Structure (SMILES): NC[C@H](O)c1ccc(O)cc1 [octopamine]
- EC50 ([4]; read-out: EC50): 921 µM

Structure (SMILES): O=C1C[C@@H]2OCC=C3CN4CC[C@]56c7ccccc7N1[C@H]5[C@H]2[C@H]3C[C@H]46 [strychnine]
- EC50 [4]: 7.5 µM

Structure (SMILES): NCCc1ccc(O)cc1 [tyramine]
- EC50 ([4]; read-out: EC50): 686 µM

Structure (SMILES): COC(=O)[C@@H]1[C@H]2C[C@H]3c4[nH]c5ccccc5c4CCN3C[C@@H]2CC[C@@H]1O [yohimbine]
- IC50 [7]: 4 µM
